Each molecule was assayed against T1, human adenosine A2A receptor (Homo sapiens, UniProt P29274) (assay: [3H]-SCH-58261 binding assay, human adenosine A2A receptor (CHO cell membranes, SPA)). Details: [3H]-SCH-58261 displacement; list of examples 10-108; read-out: hA2a Ki.
T1 construct: expressed in transfected cells; host or cells: CHO cells, semliki forest virus expression system; washed membranes
Method: Human Adenosine A2A Receptor
The human adenosine A2A receptor was recombinantly expressed in chinese hamster ovary (CHO) cells using the semliki forest virus expression system. Cells were harvested, washed twice by centrifugation, homogenized and again washed by centrifugation. The final washed membrane pellet was suspended in a Tris (50 mM) buffer containing 120 mM NaCl, 5 mM KCl, 2 mM CaCl2 and 10 mM MgCl2 (pH 7.4) (buffer A). […] Compounds were tested at 10 concentrations from 10 μM-0.3 nM. All assays were conducted in duplicate and repeated at least two times. Assay plates were incubated for 1 hour at room temperature before centrifugation and then bound ligand determined using a Packard Topcount scintillation counter. IC50 values were calculated using a non-linear curve fitting program and Ki values calculated using the Cheng-Prussoff equation.

T1 sequence (P29274 whole entry): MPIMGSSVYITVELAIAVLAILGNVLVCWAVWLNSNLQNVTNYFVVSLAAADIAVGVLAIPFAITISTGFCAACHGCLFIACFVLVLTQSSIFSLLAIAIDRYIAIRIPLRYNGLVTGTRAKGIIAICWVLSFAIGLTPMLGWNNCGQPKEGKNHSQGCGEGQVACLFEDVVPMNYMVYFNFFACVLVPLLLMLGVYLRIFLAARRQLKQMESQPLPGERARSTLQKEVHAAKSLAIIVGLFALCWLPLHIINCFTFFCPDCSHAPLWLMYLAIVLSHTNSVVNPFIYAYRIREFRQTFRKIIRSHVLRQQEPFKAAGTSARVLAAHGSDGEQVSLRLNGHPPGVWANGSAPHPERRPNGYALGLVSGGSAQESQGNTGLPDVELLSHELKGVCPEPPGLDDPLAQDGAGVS

Ki [µM] | SMILES
0.413 | COCC1CCCN1C(=O)c1cc(N)c2nc(-c3ccccc3)nn2c1 (stereo in doubt) [Example 75, (8-Amino-2-phenyl-[1,2,4]triazolo[1,5-a]pyridin-6-yl)-((S)-2-methoxymethyl-pyrrolidin-1-yl)-methanone]
0.23 | COC[C@@H]1CCCN1C(=O)c1cc(N)c2nc(-c3ccc(C)o3)nn2c1 (stereo in doubt) [Example 86, [8-Amino-2-(5-methyl-furan-2-yl)-[1,2,4]triazolo[1,5-a]pyridin-6-yl]-(2-methoxymethyl-pyrrolidin-1-yl)-methanone]
0.428 | COCC1CCCN1C(=O)c1cc(N)c2nc(-c3ccc(C)s3)nn2c1 (stereo in doubt) [Example 97, [8-Amino-2-(5-methyl-thiophen-2-yl)-[1,2,4]triazolo[1,5-a]pyridin-6-yl]-((S)2-methoxymethyl-pyrrolidin-1-yl)-methanone]
0.548 | Nc1cc(C(=O)N2CCCCC2)cn2nc(-c3ccccn3)nc12 [Example 27, (8-Amino-2-pyridin-2-yl-[1,2,4]triazolo[1,5-a]pyridin-6-yl)-piperidin-1-yl-methanone]
0.369 | CC1CCCN1C(=O)c1cc(N)c2nc(-c3ccccn3)nn2c1 (stereo not shown) [Example 28, (8-Amino-2-pyridin-2-yl-[1,2,4]triazolo[1,5-a]pyridin-6-yl)-(2-methyl-pyrrolidin-1-yl)-methanone]
0.594 | CCN(CC)C(=O)C1CCCN(C(=O)c2cc(N)c3nc(-c4ccccn4)nn3c2)C1 (stereo not shown) [Example 29, 1-(8-Amino-2-pyridin-2-yl-[1,2,4]triazolo[1,5-a]pyridine-6-carbonyl)-piperidine-3-carboxylic acid diethylamide]
0.578 | CC1CCCN(C(=O)c2cc(N)c3nc(-c4ccccn4)nn3c2)C1 (stereo not shown) [Example 30, (8-Amino-2-pyridin-2-yl-[1,2,4]triazolo[1,5-a]pyridin-6-yl)-(3-methyl-piperidin-1-yl)-methanone]
0.796 | CCCN(C)C(=O)c1cc(N)c2nc(-c3ccccn3)nn2c1 [Example 31, 8-Amino-2-pyridin-2-yl-[1,2,4]triazolo[1,5-a]pyridine-6-carboxylic acid methyl-propyl-amide]
0.387 | CN(CCc1ccccc1)C(=O)c1cc(N)c2nc(-c3ccccn3)nn2c1 [Example 32, 8-Amino-2-pyridin-2-yl-[1,2,4]triazolo[1,5-a]pyridine-6-carboxylic acid methyl-phenethyl-amide]
0.422 | CCN(CC)C(=O)c1cc(N)c2nc(-c3ccco3)nn2c1 [Example 33, 8-Amino-2-furan-2-yl-[1,2,4]triazolo[1,5-a]pyridine-6-carboxylic acid diethylamide]
0.229 | CC(C)N(Cc1ccccc1)C(=O)c1cc(N)c2nc(-c3ccco3)nn2c1 [Example 36, 8-Amino-2-furan-2-yl-[1,2,4]triazolo[1,5-a]pyridine-6-carboxylic acid benzyl-isopropyl-amide]
0.37 | CCCN(CCC)C(=O)c1cc(N)c2nc(-c3ccco3)nn2c1 [Example 38, 8-Amino-2-furan-2-yl-[1,2,4]triazolo[1,5-a]pyridine-6-carboxylic acid dipropylamide]
0.371 | CCN(CC)C(=O)C1CCCN(C(=O)c2cc(N)c3nc(-c4ccco4)nn3c2)C1 (stereo not shown) [Example 40, 1-(8-Amino-2-furan-2-yl-[1,2,4]triazolo[1,5-a]pyridine-6-carbonyl)-piperidine-3-carboxylic acid diethylamide]
0.343 | CN(C)C(=O)CN(C)C(=O)c1cc(N)c2nc(-c3ccco3)nn2c1 [Example 44, 8-Amino-2-furan-2-yl-[1,2,4]triazolo[1,5-a]pyridine-6-carboxylic acid dimethylcarbamoyl-methyl-methyl-amide]
0.506 | CCN(CCOC)C(=O)c1cc(N)c2nc(-c3ccco3)nn2c1 [Example 45, 8-Amino-2-furan-2-yl-[1,2,4]triazolo[1,5-a]pyridine-6-carboxylic acid ethyl-(2-methoxy-ethyl)-amide]
0.241 | CCCN(C)C(=O)c1cc(N)c2nc(-c3ccco3)nn2c1 [Example 47, 8-Amino-2-furan-2-yl-[1,2,4]triazolo[1,5-a]pyridine-6-carboxylic acid methyl-propyl-amide]
0.638 | Nc1cc(C(=O)N2CCSCC2)cn2nc(-c3ccco3)nc12 [Example 49, (8-Amino-2-furan-2-yl-[1,2,4]triazolo[1,5-a]pyridin-6-yl)-thiomorpholin-4-yl-methanone]
0.251 | CN(CCc1ccccc1)C(=O)c1cc(N)c2nc(-c3ccco3)nn2c1 [Example 50, 8-Amino-2-furan-2-yl-[1,2,4]triazolo[1,5-a]pyridine-6-carboxylic acid methyl-phenethyl-amide]
0.353 | Nc1cc(C(=O)N2CCCCC2)cn2nc(-c3cccs3)nc12 [Example 52, (8-Amino-2-thiophen-2-yl-[1,2,4]triazolo[1,5-a]pyridin-6-yl)-piperidin-1-yl-methanone]

Ki [µM] | SMILES
0.233 | CC1CCCN1C(=O)c1cc(N)c2nc(-c3cccs3)nn2c1 (stereo not shown) [Example 53, (8-Amino-2-thiophen-2-yl-[1,2,4]triazolo[1,5-a]pyridin-6-yl)-(2-methyl-pyrrolidin-1-yl)-methanone]
0.552 | CCCN(CCC)C(=O)c1cc(N)c2nc(-c3cccs3)nn2c1 [Example 54, 8-Amino-2-thiophen-2-yl-[1,2,4]triazolo[1,5-a]pyridine-6-carboxylic acid dipropylamide]
0.26 | CC1CCCCN1C(=O)c1cc(N)c2nc(-c3cccs3)nn2c1 (stereo not shown) [Example 55, (8-Amino-2-thiophen-2-yl-[1,2,4]triazolo[1,5-a]pyridin-6-yl)-(2-methyl-piperidin-1-yl)-methanone]
0.684 | CCN(CC)C(=O)C1CCCN(C(=O)c2cc(N)c3nc(-c4cccs4)nn3c2)C1 (stereo not shown) [Example 56, 1-(8-Amino-2-thiophen-2-yl-[1,2,4]triazolo[1,5-a]pyridine-6-carbonyl)-piperidine-3-carboxylic acid diethylamide]
0.242 | COC[C@H]1CCCN1C(=O)c1cc(N)c2nc(-c3cccs3)nn2c1 [Example 57, (8-Amino-2-thiophen-2-yl-[1,2,4]triazolo[1,5-a]pyridin-6-yl)-(2-R-methoxymethyl-pyrrolidin-1-yl)-methanone]
0.892 | COC[C@@H]1CCCN1C(=O)c1cc(N)c2nc(-c3cccs3)nn2c1 [Example 58, (8-Amino-2-thiophen-2-yl-[1,2,4]triazolo[1,5-a]pyridin-6-yl)-(2-S-methoxymethyl-pyrrolidin-1-yl)-methanone]
0.215 | NC(=O)[C@H]1CCCN1C(=O)c1cc(N)c2nc(-c3cccs3)nn2c1 [Example 59, 1-(8-Amino-2-thiophen-2-yl-[1,2,4]triazolo[1,5-a]pyridine-6-carbonyl)-pyrrolidine-2-R-carboxylic acid amide]
0.548 | CN(C)C(=O)CN(C)C(=O)c1cc(N)c2nc(-c3cccs3)nn2c1 [Example 60, 8-Amino-2-thiophen-2-yl-[1,2,4]triazolo[1,5-a]pyridine-6-carboxylic acid dimethylcarbamoyl-methyl-methyl-amide]
0.92 | CCN(CCOC)C(=O)c1cc(N)c2nc(-c3cccs3)nn2c1 [Example 61, 8-Amino-2-thiophen-2-yl-[1,2,4]triazolo[1,5-a]pyridine-6-carboxylic acid ethyl-(2-methoxy-ethyl)-amide]
0.716 | CC1CCCN(C(=O)c2cc(N)c3nc(-c4cccs4)nn3c2)C1 (stereo not shown) [Example 62, (8-Amino-2-thiophen-2-yl-[1,2,4]triazolo[1,5-a]pyridin-6-yl)-(3-methyl-piperidin-1-yl)-methanone]
0.44 | CCCN(C)C(=O)c1cc(N)c2nc(-c3cccs3)nn2c1 [Example 63, 8-Amino-2-thiophen-2-yl-[1,2,4]triazolo[1,5-a]pyridine-6-carboxylic acid methyl-propyl-amide]
0.718 | CCN(CCc1ccccn1)C(=O)c1cc(N)c2nc(-c3cccs3)nn2c1 [Example 65, 8-Amino-2-thiophen-2-yl-[1,2,4]triazolo[1,5-a]pyridine-6-carboxylic acid ethyl-(2-pyridin-2-yl-ethyl)-amide]
0.982 | Nc1cc(C(=O)N2CCSCC2)cn2nc(-c3cccs3)nc12 [Example 66, (8-Amino-2-thiophen-2-yl-[1,2,4]triazolo[1,5-a]pyridin-6-yl)-thiomorpholin-4-yl-methanone]
0.395 | CN(CCc1ccccc1)C(=O)c1cc(N)c2nc(-c3cccs3)nn2c1 [Example 67, 8-Amino-2-thiophen-2-yl-[1,2,4]triazolo[1,5-a]pyridine-6-carboxylic acid methyl-phenethyl-amide]
0.246 | Nc1cc(C(=O)N2CCCC2)cn2nc(-c3ccccc3)nc12 [Example 68, (8-Amino-2-phenyl-[1,2,4]triazolo[1,5-a]pyridin-6-yl)-pyrrolidin-1-yl-methanone]
0.554 | Nc1cc(C(=O)N2CCCCC2)cn2nc(-c3ccccc3)nc12 [Example 69, (8-Amino-2-phenyl-[1,2,4]triazolo[1,5-a]pyridin-6-yl)-piperidin-1-yl-methanone]
0.145 | CC1CCCN1C(=O)c1cc(N)c2nc(-c3ccccc3)nn2c1 (stereo not shown) [Example 70, (8-Amino-2-phenyl-[1,2,4]triazolo[1,5-a]pyridin-6-yl)-(2-methyl-pyrrolidin-1-yl)-methanone]
0.484 | CCCCN(C)C(=O)c1cc(N)c2nc(-c3ccccc3)nn2c1 [Example 71, 8-Amino-2-phenyl-[1,2,4]triazolo[1,5-a]pyridine-6-carboxylic acid methyl-butyl-amide]

Source: patent US6689790B2, “Substituted triazolopyridine compounds” (Hoffmann-La Roche Inc., priority 2001, dated 2004)
